pIC50: −log10 of the molar value. Read-outs that look alike come from different tables or passages of the source. Where only a bound is given, the exact number is not on record here.

Assay [1] relates to NCI-H460 cells. As to the kind of experiment: Antiproliferation assay (Alamar Blue), anoxia vs air. The following applies: Homo sapiens, NCI-H460, 2 h. A general note: Alamar Blue is a resazurin reagent that responds to reducing activity.
The next assay concerns H460 cell line. Nature of the assay: Anti-proliferation assay, hypoxia vs normoxia (Table 1A). The note with it: for pIC50: Homo sapiens; for HCR P: ratio of IC50 in normoxia and hypoxia.
For assay [2], the system named is NCI-H460 cells. Nature of the assay: Antiproliferation assay - oxygen dependence. It counts as cell-based, human. The source says: . […] The calculated IC50 values (μM) are tabulated in Table Y1 (H460 cells) or Table Y2 (HT29 cells) below.
The mark [3] stands for this setting: read-out: IC50 H460 Air, air, 2 h exposure.
Setting [4] is: read-out: IC50 H460 Anoxia, anoxia, 2 h exposure.
Setting [5] is: NCI-H460, read-out: Hypoxia P (proliferation IC50).
The mark [6] stands for this setting: NCI-H460, read-out: Normoxia P (proliferation IC50).
[7] abbreviates: Homo sapiens, NCI-H460, read-out: IC50 in H460 cells, 0.6% O2.
[8] abbreviates: Homo sapiens, NCI-H460; read-out: IC50 in H460 cells, N2.
Setting [9] is: Homo sapiens, NCI-H460; read-out: IC50 in H460 cells, Air.
[10] abbreviates: Homo sapiens, NCI-H460, read-out: IC50 in H460 cells, Air.

Turning to `CC(OP(N)(=O)N(CCCl)CCCl)c1ncc([N+](=O)[O-])n1C` (stereo not drawn) [Compound 2], the pIC50 was below 4.00 in the assay with NCI-H460 cells [1] (setting [3]), 5.10 in the assay on NCI-H460 cells [1] (setting [4]), 5.10 with H460 cell line (setting [5]) and below 4.00 in the assay on H460 cell line (setting [6]). The “HCR P” value in the assay on H460 cell line is recorded as above 12.
With `Cn1c([N+](=O)[O-])cnc1COc1ccc(COP(N)(=O)N(CCCl)CCCl)cc1F` (stereo not drawn) [Compound 3], the pIC50 in the assay with NCI-H460 cells [1] (setting [3]) is below 4.00; in the assay on NCI-H460 cells [1] (setting [4]), below 4.70; in the assay with H460 cell line (setting [5]), below 4.70; with H460 cell line (setting [6]), below 4.00. Also, the “HCR P” value in the assay on H460 cell line is above 5.
Take `CN(C)P(=O)(OCc1cnc([N+](=O)[O-])n1C)N(CCCl)CCCl` (stereo not drawn) [Compound 4]: the pIC50 in the assay with NCI-H460 cells [1] (setting [3]) was below 4.00; in the assay with NCI-H460 cells [1] (setting [4]), 4.40; with H460 cell line (setting [5]), 4.40; in the assay on H460 cell line (setting [6]), below 4.00. For the same molecule, the “HCR P” value in the assay with H460 cell line is reported as above 2.
Turning to `CN(CCCl)P(=O)(OCc1ccc([N+](=O)[O-])o1)N(C)CCCl` [Compound 8], the pIC50 is 6.22 in the assay on NCI-H460 cells [1] (setting [3]), 7.89 with NCI-H460 cells [1] (setting [4]), 8.00 in the assay on H460 cell line (setting [5]) and 6.22 in the assay on H460 cell line (setting [6]). For the same molecule, the “HCR P” value with H460 cell line is 60.
Turning to `O=[N+]([O-])c1ccc(COP(=O)(NCCCCNP(=O)(OCc2ccc([N+](=O)[O-])o2)N(CCCl)CCCl)N(CCCl)CCCl)o1` (stereo not drawn) [Compound 20], the pIC50 in the assay with H460 cell line (setting [5]) is 6.00; in the assay on H460 cell line (setting [6]) it was 5.07. Besides, the “HCR P” value in the assay on H460 cell line was 8.
Regarding `O=[N+]([O-])c1ccc(COP(=O)(NCCNP(=O)(OCc2ccc([N+](=O)[O-])o2)N(CCCl)CCCl)N(CCCl)CCCl)o1` (stereo not drawn) [Compound 21], the pIC50 with H460 cell line (setting [5]) is 6.60; in the assay on H460 cell line (setting [6]), 5.11. For the same molecule, the “HCR P” value in the assay on H460 cell line came out at 26.
On to `C[C@@H](CCl)NP(=O)(N[C@@H](C)CCl)OCc1cnc([N+](=O)[O-])n1C` [Compound 38], for which the pIC50 in the assay on NCI-H460 cells [2] (setting [7]) is 4.35; with NCI-H460 cells [2] (Homo sapiens, NCI-H460, read-out: IC50 in H460 cells, 1% O2), below 4.00; in the assay on NCI-H460 cells [2] (setting [8]) it was 6.40; with NCI-H460 cells [1] (setting [3]), below 4.00; in the assay on NCI-H460 cells [1] (setting [4]), 6.48.
Consider `CC(C)[C@H](CCl)NP(=O)(N[C@@H](CCl)C(C)C)OCc1ccc([N+](=O)[O-])s1` [Compound 44], for which the pIC50 was 4.35 with NCI-H460 cells [2] (setting [7]), below 4.00 in the assay with NCI-H460 cells [2] (setting [9]), 4.00 with NCI-H460 cells [1] (setting [3]) and 5.52 in the assay on NCI-H460 cells [1] (setting [4]).
On the same counts, the results for `CC(C)[C@@H](CCl)NP(=O)(N[C@H](CCl)C(C)C)OCc1ccc([N+](=O)[O-])o1` [Compound 46] are 4.30, 4.00, below 4.00 and 5.30.
For the molecule `CC(C)[C@@H](CCl)NP(=O)(N[C@H](CCl)C(C)C)OCc1ccc([N+](=O)[O-])s1` [Compound 47], the pIC50 with NCI-H460 cells [2] (setting [7]) is 4.22; with NCI-H460 cells [2] (setting [9]), 4.00; in the assay on NCI-H460 cells [1] (setting [3]) it was below 4.00; in the assay on NCI-H460 cells [1] (setting [4]) it was 5.40.
In the case of `Cn1c(COc2ccc(COP(=O)(NCCBr)NCCBr)cc2F)cnc1[N+](=O)[O-]` [Compound 50], the pIC50 was 5.52 in the assay on NCI-H460 cells [2] (setting [7]), 5.52 with NCI-H460 cells [2] (setting [10]), 5.52 in the assay with NCI-H460 cells [1] (setting [3]) and 7.00 with NCI-H460 cells [1] (setting [4]).
`C[C@H](CCl)NP(=O)(N[C@H](C)CCl)OCc1ccc(OCc2cnc([N+](=O)[O-])n2C)c(F)c1` [Compound 51]: the pIC50 in the assay with NCI-H460 cells [2] (setting [7]) was 5.15; with NCI-H460 cells [2] (setting [9]) it was 5.15; in the assay with NCI-H460 cells [1] (setting [3]), 5.15; in the assay on NCI-H460 cells [1] (setting [4]), 5.52.
Take `C[C@H](CCl)NP(=O)(N[C@H](C)CCl)OCc1ccc(-c2ccc([N+](=O)[O-])s2)cc1` [Compound 52]: the pIC50 is 5.00 with NCI-H460 cells [2] (setting [7]), 4.70 in the assay with NCI-H460 cells [2] (setting [9]), 4.70 in the assay with NCI-H460 cells [1] (setting [3]) and 4.82 in the assay on NCI-H460 cells [1] (setting [4]).
In the case of `O=[N+]([O-])c1ccc(-c2ccc(COP(=O)(NCCBr)NCCBr)cc2)s1` [Compound 53], the pIC50 with NCI-H460 cells [2] (setting [7]) was 5.30; in the assay with NCI-H460 cells [2] (setting [10]) it was 5.00; in the assay with NCI-H460 cells [1] (setting [3]), 5.00; in the assay on NCI-H460 cells [1] (setting [4]), 5.52.
`COc1cc(COP(=O)(N[C@H](C)CCl)N[C@H](C)CCl)ccc1OCc1cnc([N+](=O)[O-])n1C` [Compound 54]: the pIC50 in the assay on NCI-H460 cells [2] (setting [7]) was 4.52; in the assay on NCI-H460 cells [2] (setting [9]) it was 4.22; in the assay with NCI-H460 cells [2] (setting [8]), 6.00; in the assay with NCI-H460 cells [1] (setting [3]), 4.22; in the assay on NCI-H460 cells [1] (setting [4]), 6.00.
Take `O=[N+]([O-])c1ccc(-c2ccc(COP(=O)(NCCBr)NCCBr)cc2)o1` [Compound 55]: the pIC50 was 5.10 in the assay on NCI-H460 cells [2] (setting [7]); 4.92 with NCI-H460 cells [2] (setting [10]); 5.30 with NCI-H460 cells [2] (Homo sapiens, NCI-H460, read-out: IC50 in H460 cells, N2); 4.92 in the assay with NCI-H460 cells [1] (setting [3]); 5.30 in the assay on NCI-H460 cells [1] (setting [4]).
